Format in all cases: biochemical
One assay deals with T1, JAK1 (Homo sapiens, UniProt P23458).
T1 construct: made in house; host or cells: SF9 insect cells (baculovirus)
Kind of assay: JAK1 inhibition (Table 4). The conditions noted are these: read-out: JAK1 Ki.

Another assay concerns the target T2, JAK3 (Homo sapiens, UniProt P52333).
T2 construct: made in house; host or cells: SF9 insect cells (baculovirus)
Description: JAK3 inhibition (Table 4). The conditions noted are these: read-out: JAK3 Ki.

A further assay addresses T3, TYK2 (Homo sapiens, UniProt P29597).
T3 construct: made in house; host or cells: SF9 insect cells (baculovirus)
T3 sequence (P29597 873-1187): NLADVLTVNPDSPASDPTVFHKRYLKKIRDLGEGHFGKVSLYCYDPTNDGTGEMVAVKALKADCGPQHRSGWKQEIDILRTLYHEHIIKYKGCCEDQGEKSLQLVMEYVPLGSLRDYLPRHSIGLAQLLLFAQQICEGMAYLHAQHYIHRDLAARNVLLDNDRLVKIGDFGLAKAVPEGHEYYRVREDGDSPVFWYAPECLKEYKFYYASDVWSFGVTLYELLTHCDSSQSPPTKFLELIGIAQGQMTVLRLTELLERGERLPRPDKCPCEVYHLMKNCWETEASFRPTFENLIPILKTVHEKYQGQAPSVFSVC
Kind of assay: TYK2 inhibition (Table 4).

The target of a further assay is T4, JAK2 (Homo sapiens, UniProt O60674).
T4 construct: made in house; host or cells: SF9 insect cells (baculovirus)
Kind of assay: JAK2 inhibition (Table 4). The conditions noted are these: read-out: JAK2 Ki.

T4 sequence (O60674 812-1132): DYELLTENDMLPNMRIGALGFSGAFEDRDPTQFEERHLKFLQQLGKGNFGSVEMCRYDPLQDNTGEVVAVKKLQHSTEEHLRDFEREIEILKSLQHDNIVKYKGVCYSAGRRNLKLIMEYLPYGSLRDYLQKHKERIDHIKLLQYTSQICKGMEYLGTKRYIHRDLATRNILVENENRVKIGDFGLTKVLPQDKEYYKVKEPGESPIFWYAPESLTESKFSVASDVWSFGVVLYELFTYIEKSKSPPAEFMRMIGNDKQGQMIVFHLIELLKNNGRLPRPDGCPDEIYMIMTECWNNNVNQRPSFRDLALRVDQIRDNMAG
T1 sequence (P23458 852-1154): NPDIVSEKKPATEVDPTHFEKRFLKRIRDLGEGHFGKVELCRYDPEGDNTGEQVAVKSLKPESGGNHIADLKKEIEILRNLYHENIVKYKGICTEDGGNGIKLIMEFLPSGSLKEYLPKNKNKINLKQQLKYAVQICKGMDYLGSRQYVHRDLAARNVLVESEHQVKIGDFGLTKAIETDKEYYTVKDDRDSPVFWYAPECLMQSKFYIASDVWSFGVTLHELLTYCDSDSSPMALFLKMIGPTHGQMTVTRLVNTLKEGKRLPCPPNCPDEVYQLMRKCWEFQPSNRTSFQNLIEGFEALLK
T2 sequence (P52333 783-1124): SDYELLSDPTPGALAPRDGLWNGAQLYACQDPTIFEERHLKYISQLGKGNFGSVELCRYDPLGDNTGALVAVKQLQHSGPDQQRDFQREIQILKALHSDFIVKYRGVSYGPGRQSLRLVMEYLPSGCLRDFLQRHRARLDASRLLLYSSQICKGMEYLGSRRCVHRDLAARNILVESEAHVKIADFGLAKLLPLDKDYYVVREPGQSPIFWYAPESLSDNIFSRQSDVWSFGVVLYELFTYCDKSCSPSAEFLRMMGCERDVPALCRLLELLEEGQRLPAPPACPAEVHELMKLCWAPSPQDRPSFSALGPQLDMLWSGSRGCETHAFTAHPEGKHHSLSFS

Turning to `C[C@@H](O)c1nc2cnc3[nH]ccc3c2n1C1CCN(CCF)CC1` [Example 873, (R)-1-{1-[1-(2-Fluoro-ethyl)-piperidin-4-yl]-1,6-dihydro-1,3,5,6-tetraaza-as-indacen-2-yl}-ethanol], the inhibitory constant (Ki) is 20.7 nM on JAK1, 72.7 nM on JAK3, 422 nM at TYK2 and 124 nM at JAK2.
For the compound `N#CCCN1CCC(n2c(C3CCC3)nc3cnc4[nH]ccc4c32)CC1` [Example 327, 3-[4-(2-Cyclobutyl-6H-1,3,5,6-tetraaza-as-indacen-1-yl)-piperidin-1-yl]-propionitrile], the inhibition constant Ki on JAK1 came out at 4.84 nM; on JAK3, 20 nM; at TYK2 it was 138 nM; at JAK2, 16.9 nM.
On to `O=S(=O)(CCO)N1CCC(n2cnc3cnc4[nH]ccc4c32)CC1` [Example 194, 2-[4-(6H-1,2,3,5,6-Tetraaza-as-indacen-1-yl)-piperidine-1-sulfonyl]-ethanol], for which the Ki at JAK1 was found to be 3.91 nM; at JAK3, 282 nM; at TYK2, 30.7 nM; at JAK2, 5.32 nM.
Regarding `OC1(C2CC2)CCC(n2cnc3cnc4[nH]ccc4c32)CC1` (stereo not drawn) [Example 995, Trans-1-Cyclopropyl-4-(6H-1,3,5,6-tetraaza-as-indacen-1-yl)-cyclohexanol], the Ki at JAK1 was 6.41 nM; on JAK3, 74.1 nM; at TYK2, 32.1 nM; at JAK2, 13.7 nM.
For `N#Cc1ccc(CN2CCC[C@@H](n3cnc4cnc5[nH]ccc5c43)C2)cc1` [Example 40, 4-[(R)-3-(6H-1,3,5,6-Tetraaza-as-indacen-1-yl)-piperidin-1-ylmethyl]benzonitrile], the inhibitory constant (Ki) at JAK1 worked out at 6.35 nM; at JAK3, 66.9 nM; at TYK2 it was 107 nM; at JAK2 it was 17.8 nM.
For `Cc1nc2cnc3[nH]ccc3c2n1[C@H]1CCC[C@@](C)(O)C1` [Example 888, (1R,3S)-1-Methyl-3-(2-methyl-6H-1,3,5,6-tetraaza-as-indacen-1-yl)-cyclohexanol] the same measures were 12.8 nM, 14 nM, 40.9 nM and 17.7 nM.
`Cn1cc(CN2CCC(n3cnc4cnc5[nH]ccc5c43)CC2)cn1` [Example 68]: the Ki on JAK1 was 21 nM; at JAK3, 354 nM; at TYK2 it was 1160 nM; at JAK2 it was 70.7 nM.
Turning to `C[C@@H](O)c1nc2cnc3[nH]ccc3c2n1C1CCN(Cc2cnn(C)c2)CC1` [Example 818, (R)-1-{1-[1-(1-Methyl-1H-pyrazol-4-ylmethyl)-piperidin-4-yl]-1,6-dihydro-1,3,5,6-tetraaza-as-indacen-2-yl}-ethanol], the inhibition constant Ki on JAK1 stood at 9.45 nM; on JAK3 it was 117 nM; on TYK2, 1380 nM; on JAK2 it was 383 nM.
For `CC(C)(O)c1nc2cnc3[nH]ccc3c2n1C1CCN(CCC#N)CC1` [Example 335, 3-{4-[2-(1-Hydroxy-1-methyl-ethyl)-6H-1,3,5,6-tetraaza-as-indacen-1-yl]-piperidin-1-yl}-propionitrile] the same measures were 31.2 nM, 67.6 nM, 944 nM and 127 nM.
With `c1cc2c(ncc3ncn(C4CCN(Cc5cncs5)CC4)c32)[nH]1` [Example 104, 1-(1-Thiazol-5-ylmethyl-piperidin-4-yl)-1,6-dihydro-1,3,5,6-tetraaza-as-indacene], the Ki on JAK1 was 0.9 nM; on JAK3 it was 11.5 nM; at TYK2 it was 20.9 nM; at JAK2 it was 1.69 nM.
Regarding `Cn1ncc2c1CC[C@@H](n1cnc3cnc4[nH]ccc4c31)C2` [Example 955, 1-((R)-1-Methyl-4,5,6,7-tetrahydro-1H-indazol-5-yl)-1,6-dihydro-1,3,5,6-tetraaza-as-indacene], the inhibitory constant (Ki) amounted to 7.67 nM at JAK1, 109 nM at JAK3, 53.6 nM on TYK2 and 8.9 nM at JAK2.
For `CC1(n2cnc3cnc4[nH]ccc4c32)CCN(Cc2cccc(C#N)c2)CC1` [Example 754, 3-[4-Methyl-4-(6H-1,3,5,6-tetraaza-as-indacen-1-yl)-piperidin-1-ylmethyl]-benzonitrile] the same measures were 40.4 nM, 961 nM, 2370 nM and 286 nM.
`CC(CC#N)N1CCC(n2c(C3CCOCC3)nc3cnc4[nH]ccc4c32)CC1` (racemic) [Example 393, 3-{4-[2-(Tetrahydro-pyran-4-yl)-6H-1,3,5,6-tetraaza-as-indacen-1-yl]-piperidin-1-yl}-butyronitrile]: the Ki came to 45.6 nM on JAK1, 29.9 nM on JAK3, 382 nM at TYK2 and 44.7 nM at JAK2.
The matching figures for `CC(O)c1nc2cnc3[nH]ccc3c2n1C1CCN(Cc2ccccc2)CC1` (racemic) [Example 157, Racemic 1-[1-(1-Benzyl-piperidin-4-yl)-1,6-dihydro-1,2,3,5,6-tetraaza-as-indacen-2-yl]-ethanol]: 3.59 nM, 34 nM, 207 nM and 25.1 nM.
`N#CCCN1CCC(n2c(CC3CC3)nc3cnc4[nH]ccc4c32)CC1` [Example 383, 3-[4-(2-Cyclopropylmethyl-6H-1,3,5,6-tetraaza-as-indacen-1-yl)-piperidin-1-yl]-propionitrile]: the Ki amounted to 9.88 nM at JAK1, 21.4 nM on JAK3, 217 nM at TYK2 and 35.6 nM at JAK2.
Consider `O=C(Cc1nc2cnc3[nH]ccc3c2n1C1CC2CCC1C2)N1CCC(O)CC1` (racemic) [Example 869, 2-(1-Bicyclo[2.2.1]hept-2-yl-1,6-dihydro-1,3,5,6-tetraaza-as-indacen-2-yl)-1-(4-hydroxy-piperidin-1-yl)-ethanone], for which the inhibition constant Ki at JAK1 turned out to be 0.89 nM; at JAK3 it was 8.69 nM; at TYK2, 10.1 nM; on JAK2 it was 17.9 nM.
The matching figures for `CC(C)(C)OC(=O)N1CCC[C@@H](CN[C@H]2CC[C@H](n3cnc4cnc5[nH]ccc5c43)CC2)C1` [Example 566, trans (S)-3-{[4-(6H-1,3,5,6-Tetraaza-as-indacen-1-yl)-cyclohexylamino]-methyl}-piperidine-1-carboxylic acid tert-butyl ester]: 20.5 nM, 498 nM, 260 nM and 186 nM.
The matching figures for `CC(C1CCCO1)n1cnc2cnc3[nH]ccc3c21` (single isomer, unassigned) [Example 417, 1-[1-(Tetrahydro-furan-2-yl)-ethyl]-1,6-dihydro-1,3,5,6-tetraaza-as-indacene]: 89.3 nM, 43.1 nM, 341 nM and 74.1 nM.
For `CC(=O)NCc1nc2cnc3[nH]ccc3c2n1C1CCN(CC(F)(F)F)CC1` [Example 920, N-{1-[1-(2,2,2-Trifluoro-ethyl)-piperidin-4-yl]-1,6-dihydro-1,3,5,6-tetraaza-as-indacen-2-ylmethyl}-acetamide] the same measures were 13 nM, 86.5 nM, 183 nM and 93 nM.

Source of the values: US8461328B2, “Tricyclic heterocyclic compounds, compositions and methods of use thereof” (Genentech, Inc., priority 2010, dated 2013).
